In the supplement of paper PMC10307832:

Assays:
Assay in all cases: relative viability (nuclei count vs DMSO), 5 days (fraction); higher = more cells survive
[1] = compound: Cc1ccc2nc(NCCN)c3ncc(C)n3c2c1 + CCNC(=O)c1noc(-c2cc(C(C)C)c(O)cc2O)c1-c1ccc(CN2CCOCC2)cc1 [Luminespib] (partner 0.01 µM)
Summary of the method: (§1)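 Values are medians from duplicate plates. Each reflects relative viability, defined as the nuclei count of treated wells over that of vehicle wells. Lung cancer cell lines in 1536-well plates were pin-tool dosed one day after seeding with one drug alone or with a fixed anchor-drug dose plus five library-drug doses (not always all listed) in √10 steps, then fixed, stained and imaged at 4× after 5 days.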

[2] = compound: O=C(/C=C/c1ccccc1)NC(NC(=S)Nc1cccc2cccnc12)C(Cl)(Cl)Cl [Salubrinal] + CC(=O)Nc1cccc(-n2c(=O)n(C3CC3)c(=O)c3c(Nc4ccc(I)cc4F)n(C)c(=O)c(C)c32)c1 [Trametinib] (partner 0.02 µM)
Summary of the method: as §1

[3] = compound: O=C(/C=C/c1ccccc1)NC(NC(=S)Nc1cccc2cccnc12)C(Cl)(Cl)Cl [Salubrinal] + C[C@]1(O)C[C@@H](c2nc(-c3ccc4ccc(-c5ccccc5)nc4c3)c3c(N)nccn32)C1 [Linsitinib] (partner 1 µM)
Summary of the method: as §1

[4] = compound: O=C(/C=C/c1ccccc1)NC(NC(=S)Nc1cccc2cccnc12)C(Cl)(Cl)Cl [Salubrinal] + Nc1ncn([C@H]2C[C@H](O)[C@@H](CO)O2)c(=O)n1 [Decitabine] (partner 2 µM)
Summary of the method: as §1

| Cell Line | relative viability ([1]; first compound 0.04 µM) | relative viability ([1]; first compound 0.1265 µM) | relative viability ([1]; first compound 0.4 µM) | relative viability ([1]; first compound 1.265 µM) | relative viability ([1]; first compound 4 µM) | relative viability ([2]; first compound 0.08 µM) | relative viability ([2]; first compound 0.253 µM) | relative viability ([2]; first compound 0.8 µM) | relative viability ([2]; first compound 2.53 µM) | relative viability ([2]; first compound 8 µM) | relative viability ([3]; first compound 0.08 µM) | relative viability ([3]; first compound 0.253 µM) | relative viability ([3]; first compound 0.8 µM) | relative viability ([3]; first compound 2.53 µM) | relative viability ([3]; first compound 8 µM) | relative viability ([4]; first compound 0.08 µM) | relative viability ([4]; first compound 0.253 µM) | relative viability ([4]; first compound 0.8 µM) | relative viability ([4]; first compound 2.53 µM) | relative viability ([4]; first compound 8 µM) |
| --- | --- | --- | --- | --- | --- | --- | --- | --- | --- | --- | --- | --- | --- | --- | --- | --- | --- | --- | --- | --- |
| 201T | 1.1 | 1.05 | 1.06 | 1.12 | 1.07 | 0.741 | 0.726 | 0.788 | 0.728 | 0.716 | 1.04 | 0.982 | 1.09 | 1.07 | 0.97 | 0.918 | 0.815 | 0.859 | 0.84 | 0.83 |
| A549 |  |  |  |  |  |  |  |  |  |  | 0.709 | 0.568 | 0.669 | 0.558 | 0.54 |  | 0.253 | 0.245 | 0.257 | 0.246 |
| A-427 | 1.1 | 0.784 | 0.993 | 1.02 | 0.846 | 0.782 | 0.812 | 0.791 | 0.689 | 0.764 | 1.12 | 1.2 | 1.1 | 1.08 | 1.22 | 0.575 | 0.564 | 0.57 | 0.539 | 0.597 |
| ABC-1 | 0.507 | 0.719 |  | 0.52 | 0.41 |  |  |  |  |  | 0.802 | 0.753 | 0.76 | 0.952 | 0.781 | 1.42 | 0.915 | 1.14 | 1.01 | 1.13 |
| BEN | 0.337 | 0.295 | 0.425 | 0.179 | 0.688 | 1.07 | 1.03 | 1.07 | 1.14 | 1.12 | 1.15 | 0.624 | 1.23 | 0.931 | 0.892 | 0.711 | 0.726 | 0.865 | 0.741 | 0.766 |
| CAL-12T | 0.642 | 0.522 | 0.715 | 0.534 | 0.214 | 0.378 | 0.406 | 0.327 | 0.244 | 0.269 | 0.754 | 0.883 | 0.971 | 0.806 | 0.726 |  |  |  |  |  |
| COR-L23 | 0.682 | 0.644 | 0.763 | 0.47 | 0.625 | 0.7 | 0.734 | 0.736 | 0.581 | 0.518 | 1.16 | 0.676 | 1.24 | 1 | 0.888 | 0.408 | 0.395 | 0.451 | 0.473 | 0.386 |
| COR-L 105 | 0.921 | 0.529 | 0.603 | 0.57 | 0.497 | 0.466 | 0.559 | 0.407 | 0.477 | 0.449 | 1.04 | 1.03 | 0.737 | 0.953 | 0.776 | 0.807 | 0.693 | 0.655 | 0.712 | 0.534 |
| Calu-6 |  |  |  |  |  |  |  |  |  |  | 0.983 | 0.842 | 1.08 | 0.928 | 0.992 |  |  |  |  |  |
| ChaGo-K-1 | 0.7 | 0.565 | 0.608 | 0.517 | 0.643 | 0.968 | 0.858 | 0.882 | 0.905 | 0.802 |  |  |  |  |  | 0.574 | 0.523 | 0.56 | 0.523 | 0.467 |
| EBC-1 |  |  |  |  |  |  |  |  |  |  | 0.767 | 0.844 | 1.03 | 0.873 | 0.897 |  |  |  |  |  |
| EKVX | 0.955 | 0.842 | 0.886 | 0.843 | 0.93 | 0.332 | 0.47 | 0.565 | 0.303 | 0.358 | 1.4 | 0.744 | 1.15 | 1.01 | 0.856 | 0.367 | 0.366 | 0.482 | 0.286 | 0.331 |
| EMC-BAC-2 | 1.21 | 1.2 | 1.19 | 1.2 | 1.13 | 0.948 | 0.878 | 0.937 | 0.906 | 0.973 | 0.901 | 0.682 | 0.856 | 0.77 | 0.858 | 0.992 | 0.879 | 1.01 | 0.991 | 1.05 |
| EPLC-272H | 0.272 | 0.253 | 0.196 | 0.299 | 0.159 | 0.305 | 0.298 | 0.298 | 0.314 | 0.298 | 1.19 | 0.832 | 1.37 | 1.27 | 1.05 | 0.403 | 0.373 | 0.369 | 0.405 | 0.362 |
| H3255 | 0.878 | 1.01 | 0.824 | 0.926 | 0.76 | 0.744 | 0.55 | 0.832 | 0.582 | 0.597 | 0.982 | 0.905 | 1.2 | 1.04 | 0.974 | 0.703 | 0.649 | 0.774 | 0.591 | 0.558 |
| HARA | 0.822 | 0.753 | 0.622 | 0.681 | 0.681 | 0.715 | 0.873 | 0.631 | 0.621 | 0.702 | 1.09 | 0.905 | 0.936 | 0.898 | 0.99 | 0.402 | 0.498 | 0.601 | 0.517 | 0.605 |
